Marks after values point to notes of the source that are not given here.
How the values were obtained:
[1] = system: cerebral ischemia/reperfusion injury model rats; experiment: Neural function score in cerebral ischemia/reperfusion injury model (Example 3); type: in vivo, Sprague-Dawley rats; details: for neural function score (median): n=15, scale 0 normal to 5
Protocol: Male Sprague-Dawley rats with the age of 12 weeks and weight of 250^˜280 g were used in the experiment after acclimating for a week.
A middle cerebral artery occlusion model was first established in compliance with the method of Longa E Z et al. (Longa E Z, et al. Reversible middle cerebral artery occlusion without craniectomy in rats. Stroke 20:84-91, 1989). More specifically, 0.36 g/kg of 10% chloral hydrate was administered intraperitoneally to rats which had been fasted for 12 hours (although given free access to water) to anesthetize the rats. Next, a midline incision was made in the neck to expose the right common carotid artery. Then, the internal carotid artery and external carotid artery were separated, the posterior carotid artery, which is a branch of the external carotid artery, and the thyroidea arteria were coagulated and severed, the external carotid artery was ligated at the branch of the lingual artery and maxillary artery, a small puncture was formed in the external carotid artery, 4-0 Nylon suture was passed through the common carotid artery from the puncture, and gradually inserted into the internal carotid artery until there was resistance. The length of the Nylon suture was about 18^˜20 mm from the branch of the common carotid artery. As a result of occluding the middle cerebral artery with Nylon suture, an ischemic state was applied for 2 hours to create a middle cerebral artery occlusion model.
A cerebral ischemia/reperfusion injury model was established by removing the Nylon suture from the middle cerebral artery of the occlusion model and following reperfusion of blood.
The first solution was a mixed solution made of sodium chlorite with the concentration of 7.47% and sodium chloride with the concentration of 1.59% with deionized water; the second solution was made of citric acid with the concentration of 16.7% with deionized water. Same volume of solutions were taken out from different vessels with different volumes and mixed up. Allow the solution to mix for 3-5 minutes and dilute it five times with normal saline, and then filter it with 0.22 μm filter membrane of double-deck. The solution was immediately put into injector. The solution was prepared once being used.
Treatment group (120 rats): A cerebral ischemia/reperfusion injury model was established for the rats already. To administer chlorine dioxide solution everytime that prepared from procedure (3) through carotid artery after the second day the model has established, once a day for total ten days.
Neural function scores were evaluated once a day after the ischemia/reperfusion injury model established in the 15 rats per group. The scores of neural function disorders were evaluated using the following criteria in compliance with the method of Longa E Z (Longa E Z, et al. Reversible middle cerebral artery occlusion without craniectomy in rats. Stroke 20:84-91, 1989). The results were shown as median.
1: Contralateral limb bending on infarction focus
2: Contralateral limb on infarction focus becomes asthenic state when tail is pulled backward
3: Turning toward opposite side of infarction focus when tail is pulled
4: Spontaneous turning towards opposite side of infarction focus
5: Loss of spontaneous movement

[2] = system: wound of rabbit; details: Jin Wei et al. 2011; cited from earlier work
[3] = system: VE cadherin-positive mononuclear cells; experiment: VE cadherin-positive mononuclear cells in peripheral blood of lower limb DVT patients, flow cytometry; type: in vivo, human; details: before administration 0.44 ± 0.70, diluted solution 10 ml/body/day femoral artery puncture, 14 days
Source text: The subjects consisted of 14 male and 6 female lower limb DVT patients with the unilateral limb suffer from the illness, aged from 59 to 76 years old (average age: 67.2 years old). The purpose of the clinical test was explained to all subjects and their consent was obtained before conducting the clinical test.
The first solution was a mixed solution made of sodium chlorite with the concentration of 7.47% and sodium chloride with the concentration of 1.59% with deionized water; the second solution was made of citric acid with the concentration of 16.7% with deionized water. Same volume of solutions were taken out from different vessels with different volumes and mixed up. […]
Five ml of peripheral blood was collected from the median cubital vein of the forearm of each patient using low molecular weight heparin anticoagulant before administration (before initial administration) and on day 7 and 14 after administration, and the collected blood was immediately stored at 4° C. and measured within 6 hours after collection. […]
VE Cadherin-positive mononuclear cells were isolated by immunofluorescent stain using flow cytometry. […] Next, VE cadherin-positive mononuclear cells were isolated and counted by flow cytometry. The ratio (%) of VE cadherin-positive mononuclear cells among the mononuclear cells was calculated according to the following formula. […]

[4] = system: rat model of type II diabetes mellitus; experiment: Fasting blood-glucose in rat model of type II diabetes mellitus (Example 10); type: in vivo
Protocol: The rat models of type II diabetes mellitus bought from Department of Medicine of Peking University were divided into group A and B randomly with 10 rats for each group. Group A was treatment group of activating agent of stem cells. Group B was control group of 0.9% sodium chloride of the same volume. The rats of group A were injected with 0.5 ml activating agent of stem cells at insulin injection site on day 0, same dosage of medicine were injected on day 7, day 14; The rats of group B were injected with 0.5 ml NS at hepatic artery at the same point-in-time, then calculate the blood sugar. The fasting blood-glucose of the rat model was checked on day 7, day 14, day 21 and day 28 respectively after the last injection. Table 20 is the results.

[O][Cl+][O-] [chlorine dioxide solution, chlorine dioxide]
neural function score (median) ([1]; Day 1, model group 3, NaClO2 7.47% + citric acid 16.7% 1:1 diluted five times, carotid artery once a day for ten days after the second day): 3
neural function score (median) ([1]; Day 2, model group 3, diluted solution via carotid artery once a day for ten days after the second day): 3
neural function score (median) ([1]; Day 3, model group 3, diluted solution via carotid artery once a day for ten days after the second day): 2
neural function score (median) ([1]; Day 4, model group 2, diluted solution via carotid artery once a day for ten days after the second day): 2
neural function score (median) ([1]; Day 5, model group 2, diluted solution via carotid artery once a day for ten days after the second day): 1
neural function score (median) ([1]; Day 6, model group 2, diluted solution via carotid artery once a day for ten days after the second day): 1
neural function score (median) ([1]; Day 7, model group 2, diluted solution via carotid artery once a day for ten days after the second day): 1
neural function score (median) ([1]; Day 8, model group 2, diluted solution via carotid artery once a day for ten days after the second day): 0
neural function score (median) ([1]; Day 9, model group 1, diluted solution via carotid artery once a day for ten days after the second day): 0
neural function score (median) ([1]; Day 10, model group 1, diluted solution via carotid artery once a day for ten days after the second day): 0
neural function score (median) ([1]; Day 11, model group 1, diluted solution via carotid artery once a day for ten days after the second day): 0
neural function score (median) ([1]; Day 12, model group 1, diluted solution via carotid artery once a day for ten days after the second day): 0
neural function score (median) ([1]; Day 13, model group 1, diluted solution via carotid artery once a day for ten days after the second day): 0
neural function score (median) ([1]; Day 14, model group 1, diluted solution via carotid artery once a day for ten days after the second day): 0
neural function score (median) ([1]; Day 15, model group 1, diluted solution via carotid artery once a day for ten days after the second day): 0
neural function score (median) ([1]; Day 16, model group 1, diluted solution via carotid artery once a day for ten days after the second day): 0
neural function score (median) ([1]; Day 17, model group 1, diluted solution via carotid artery once a day for ten days after the second day): 0
neural function score (median) ([1]; Day 18, model group 1, diluted solution via carotid artery once a day for ten days after the second day): 0
neural function score (median) ([1]; Day 19, model group 1, diluted solution via carotid artery once a day for ten days after the second day): 0
neural function score (median) ([1]; Day 20, model group 1, diluted solution via carotid artery once a day for ten days after the second day): 0
neural function score (median) ([1]; Day 21, model group 1, diluted solution via carotid artery once a day for ten days after the second day): 0**
onset of recovery of neural function, treatment group vs model group ([1]; significant particularly on day 7, 8, 9 and 16 after operation): earlier than that in the model group
effect on wound in animal test [2]: speeding haemostasis and promoting healing on wound
VE Cadherin-Positive Mononuclear Cells (ratio among mononuclear cells, mean±SD) ([3]; Day 7 after administration, n=20): 1.5 ± 1.11 %
VE Cadherin-Positive Mononuclear Cells (ratio among mononuclear cells, mean±SD) ([3]; Day 14 after administration, n=15): 1.91 ± 1.65 %
MBG (fasting blood-glucose), ±SD ([4]; Day 7 after administration, Group A n=10, Day 0 17.3 ± 0.4, NS group 18.3 ± 2.4, NaClO2 4%/NaCl 1% + citric acid 8% 1:1, 0.5 ml injected day 0, 7, 14): 9.3 ± 3.5 mmol/L
MBG (fasting blood-glucose), ±SD ([4]; Day 14 after administration, Day 0 17.3 ± 0.4, NS group 17.2 ± 1.6, 0.5 ml injected day 0, 7, 14): 4.3 ± 1.1 mmol/L
MBG (fasting blood-glucose), ±SD ([4]; Day 28 after administration, Day 0 17.3 ± 0.4, NS group 17.9 ± 2.3, 0.5 ml injected day 0, 7, 14): 3.1 ± 1.2 mmol/L
FBG levels of rats in treatment group ([4]; control group remains unchanged): become normal after 14 days
side effects ([4]; rat model of type II diabetes mellitus): few or no side effects
MBG (fasting blood-glucose), ±SD ([4]; rat, in vivo): 3.5 ± 1.3 mmol/L

From US20150335678A1, “METHOD OF ACTIVATING STEM CELLS IN AN ANIMAL AND THE USE OF CHLORINE DIOXIDE FOR PREPARING MEDICINES FOR ACTIVATING STEM CELLS IN AN ANIMAL” (priority 2012, published 2015)
